In ChEMBL document CHEMBL1201862, “PubChem BioAssay data set” (2004):
Activity calls are given as the source filed them. Cut-off read from the data, not from the text of the source: actives have a measured IC50 and inactives only a lower limit.

Target: Envelope glycoprotein gp160 (Human immunodeficiency virus 1, UniProt Q6QLK5)
Assay: inhibitors of HIV fusion peptide binding, primary screen, biochemical, uHTS, fluorescence dequenching (AID 1986)

Envelope glycoprotein gp160, sequence (Q6QLK5 whole entry, the tested form may be a part): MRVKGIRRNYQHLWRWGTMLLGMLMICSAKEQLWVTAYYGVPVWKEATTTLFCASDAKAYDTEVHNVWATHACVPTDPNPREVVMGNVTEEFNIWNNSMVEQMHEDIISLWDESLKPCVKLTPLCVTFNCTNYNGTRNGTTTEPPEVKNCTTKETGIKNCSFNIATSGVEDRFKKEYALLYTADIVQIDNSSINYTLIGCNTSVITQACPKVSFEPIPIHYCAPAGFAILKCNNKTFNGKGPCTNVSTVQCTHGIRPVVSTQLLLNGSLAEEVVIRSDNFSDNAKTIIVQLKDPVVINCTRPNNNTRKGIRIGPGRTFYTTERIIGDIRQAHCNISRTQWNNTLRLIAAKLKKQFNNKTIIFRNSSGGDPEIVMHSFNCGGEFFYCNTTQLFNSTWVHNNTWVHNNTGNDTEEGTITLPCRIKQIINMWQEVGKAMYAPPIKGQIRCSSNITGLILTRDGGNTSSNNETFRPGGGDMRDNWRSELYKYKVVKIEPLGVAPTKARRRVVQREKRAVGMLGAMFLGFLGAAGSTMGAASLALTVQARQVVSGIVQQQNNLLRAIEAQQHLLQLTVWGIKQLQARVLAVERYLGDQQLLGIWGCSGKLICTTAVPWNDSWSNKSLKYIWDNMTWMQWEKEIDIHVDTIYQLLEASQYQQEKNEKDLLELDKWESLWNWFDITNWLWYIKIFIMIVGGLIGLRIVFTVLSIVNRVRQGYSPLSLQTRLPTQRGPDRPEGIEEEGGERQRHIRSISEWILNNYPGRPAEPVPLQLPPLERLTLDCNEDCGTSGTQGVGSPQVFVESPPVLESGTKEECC

O=C(O)c1cc(N2N=C(C(F)(F)F)/C(=C/C=C/c3ccco3)C2=O)ccc1Cl
IC50: 8.25 µM (active)

CCN1C(=O)/C(=C\c2ccc(-c3ccc([N+](=O)[O-])cc3OC)o2)S/C1=N\c1cccc(C(=O)O)c1
IC50: 29.4 µM (active)
